Measurements as given in article PMC6751662, “Pharmacological and functional similarities of the human neuropeptide Y system in C. elegans challenges phylogenetic views on the FLP/NPR system” (Cell Communication and Signaling : CCS, 2019).

Assays:
Assay type in all cases: cell-based, C. elegans
[1] = target: T1, NPR-1 (Caenorhabditis elegans, UniProt Q18534); assay: IP accumulation assay, chimeric GαΔ6qi4myr, NPR-1; design: expressed in transfected cells; host or cells: HEK293; details: 1 h, HBSS + 20 mM LiCl, HEK293 receptor + GαΔ6qi4myr, HTRF IP-One
T1 sequence (Q18534 1-457): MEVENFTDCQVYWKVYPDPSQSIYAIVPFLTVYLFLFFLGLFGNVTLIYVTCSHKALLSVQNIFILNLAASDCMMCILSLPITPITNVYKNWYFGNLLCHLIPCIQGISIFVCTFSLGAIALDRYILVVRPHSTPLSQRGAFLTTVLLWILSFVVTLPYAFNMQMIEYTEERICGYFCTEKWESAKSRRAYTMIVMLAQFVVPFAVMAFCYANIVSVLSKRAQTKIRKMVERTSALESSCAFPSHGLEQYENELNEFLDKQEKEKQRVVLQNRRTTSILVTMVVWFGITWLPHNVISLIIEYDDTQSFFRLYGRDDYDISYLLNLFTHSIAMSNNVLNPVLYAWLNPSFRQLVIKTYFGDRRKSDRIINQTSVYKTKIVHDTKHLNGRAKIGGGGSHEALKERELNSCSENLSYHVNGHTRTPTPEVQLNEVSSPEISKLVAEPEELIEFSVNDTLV
Procedure: (§1) For measuring IP accumulation, HEK293 cells grown to 70–80% confluency in 6-well plates were transiently co-transfected using Metafectene Pro (2.5 μl/μg DNA; Biontex) with plasmids containing receptor and/or mock (empty pcDNA3.1) (for endogenous Gq-coupling) using 4 μg total DNA in a ratio of 3:1 following the manufacturer’s instructions. For testing Gα16- and GαΔ6qi4myr-coupling, plasmids encoding the corresponding Gα protein were co-transfected instead of mock. Gα16 is naturally promiscuous and stimulates the phospholipase C (PLC) pathway leading to IP production, while the exchange of the C-terminal four amino acids of Gαq for the corresponding residues of Gαi1 in the chimeric GαΔ6qi4myr confers the ability to couple to Gi/o protein-preferring receptors but still stimulate PLC, thus specifically redirecting downstream cellular signaling. 16 h post transfection, the cells were seeded into white 384-well plates at a density of 20,000 cells/well. Media was removed 24 h later and the cells were incubated with the indicated concentration of peptides for 1 h in HBSS + 20 mM LiCl. IP accumulation was measured with the HTRF-based IP-One Gq kit (Cisbio) on a microplate reader (Tecan Spark).
(§2) For in vitro activation, data is presented as mean ± SEM of at least three independent experiments conducted in technical triplicate. […] For the C. elegans NPRs, we considered the strongest response elicited by any of the peptides downstream of a particular receptor as the receptor’s maximal signal. This may or may not be the biological maximum that can be reached by the ‘true’ endogenous agonist. For the human receptors, the response to the established endogenous agonist reflected the maximal signal.

[2] = target: T1, NPR-1; assay: cAMP reporter gene assay, Gs (no forskolin), NPR-1; design: host or cells: HEK293; details: no forskolin, 4 h, transiently transfected HEK293, CRE-luciferase reporter, mean of >=3 independent experiments
Procedure: Activation of Gs and Gi/o was assessed with a cAMP reporter gene assay. HEK293 cells grown to 70–80% confluency in 6-well plates were transiently co-transfected with vectors encoding the receptor and the cAMP reporter gene plasmid pGL4.29 [luc2P/CRE/Hygro] (Promega; 4 μg total, 1:1 ratio) using Metafectene Pro (3 μl/μg DNA; Biontex) following the manufacturer’s instructions. 16 h post transfection, the cells were seeded into white 384-well plates at a density of 20,000 cells/well. On the next day, the medium was removed and the cells were stimulated with 20 μl of peptide solution (or forskolin as positive control) in serum-free DMEM for 4 h. For measuring Gi/o activity, the peptide solutions additionally contained 1 μM forskolin to elevate cellular cAMP levels. After incubation, the luciferase substrate OneGlo in lysis buffer (Promega) was added and the luminescence was measured in a microplate reader Tecan Spark (Tecan). Data were analyzed with GraphPad Prism 5.03 and are shown as fold of basal or fold of forskolin in case of Gαi/o activity.
as §2

[3] = target: T2, NPR-4b (Caenorhabditis elegans, UniProt A0A078BTK0); assay: IP accumulation assay, endogenous Gαq + mock, NPR-4b; details: 1 h, HBSS + 20 mM LiCl, HEK293 receptor + empty vector, HTRF IP-One, mean of >=3 independent experiments
T2 sequence (A0A078BTK0 1-376): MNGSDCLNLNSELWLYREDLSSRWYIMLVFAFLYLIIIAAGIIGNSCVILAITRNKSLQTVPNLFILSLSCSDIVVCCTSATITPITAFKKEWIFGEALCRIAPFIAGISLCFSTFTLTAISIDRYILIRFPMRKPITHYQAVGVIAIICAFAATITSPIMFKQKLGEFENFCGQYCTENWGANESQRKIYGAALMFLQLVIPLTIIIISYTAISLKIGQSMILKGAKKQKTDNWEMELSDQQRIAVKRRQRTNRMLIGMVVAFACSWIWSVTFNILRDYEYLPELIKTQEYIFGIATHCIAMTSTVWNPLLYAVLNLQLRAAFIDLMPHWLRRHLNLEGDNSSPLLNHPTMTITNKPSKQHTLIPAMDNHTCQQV
Procedure: as §1
(§3) For in vitro activation, data is presented as mean ± SEM of at least three independent experiments conducted in technical triplicate. […]

[4] = target: T3, NPR-3 (Caenorhabditis elegans, UniProt P90745); assay: IP accumulation assay, endogenous Gαq + mock, NPR-3; details: 1 h, HBSS + 20 mM LiCl, HEK293 receptor + empty vector, HTRF IP-One, mean of >=3 independent experiments
T3 construct: expressed in transfected cells; host or cells: HEK293
T3 sequence (P90745 1-376): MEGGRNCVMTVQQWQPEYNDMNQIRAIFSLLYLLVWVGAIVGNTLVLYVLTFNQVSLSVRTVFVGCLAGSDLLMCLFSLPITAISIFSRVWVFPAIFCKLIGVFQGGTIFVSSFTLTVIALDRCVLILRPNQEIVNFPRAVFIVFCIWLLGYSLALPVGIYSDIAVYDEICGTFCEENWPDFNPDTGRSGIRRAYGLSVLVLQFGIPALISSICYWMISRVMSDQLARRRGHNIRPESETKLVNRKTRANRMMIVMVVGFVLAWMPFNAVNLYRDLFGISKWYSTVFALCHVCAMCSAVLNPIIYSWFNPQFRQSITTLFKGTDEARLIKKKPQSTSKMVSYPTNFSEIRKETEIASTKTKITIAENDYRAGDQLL
Procedure: as §1, §3

[5] = target: T1, NPR-1; assay: IP accumulation assay, endogenous Gαq + mock, NPR-1; design: host or cells: HEK293; details: 1 h, HBSS + 20 mM LiCl, HEK293 receptor + empty vector, HTRF IP-One, mean of >=3 independent experiments
Procedure: as §1, §3

[6] = test system: NPR-6; assay: IP accumulation assay, endogenous Gαq + mock, NPR-6; details: 1 h, HBSS + 20 mM LiCl, HEK293 receptor + empty vector, HTRF IP-One, mean of >=3 independent experiments
Procedure: as §1, §3

[7] = 0.1 µM peptide (Table S8), mean of >=3 independent experiments
[8] = 10 µM peptide, mean of >=3 independent experiments (Tables S5 and S8)
[9] = 0.1 nM peptide (so in the source)

Q: With “AGSDPNFLRF-NH2 [FLP-1-2, C. elegans FMRFamide-like peptide, C-terminally amidated, synthesized by SPPS]” as the substance, how does the “IP accumulation with GαΔ6qi4myr, NPR-1” value [1, 7] read?
A: Its value is 1.03 x-fold of basal.

Q: And the “IP accumulation with GαΔ6qi4myr, NPR-1” value [1, 8]?
A: The value was 0.98 x-fold of basal.

Q: With “APKPKFIRF-NH2 [FLP-5-1, C. elegans FMRFamide-like peptide, C-terminally amidated, synthesized by SPPS]” as the substance, how does the “cAMP assay Gs, NPR-1” value ([2]; 0.1 µM peptide) read?
A: The value was 1.12 x-fold of basal.

Q: And the “cAMP assay Gs, NPR-1” value ([2]; 10 µM peptide)?
A: The value was 1.05 x-fold of basal.

Q: What about the “IP assay endog. Gαq + mock, NPR-4b” value [3, 9] of the same substance?
A: Its value is 0.98 x-fold of basal.

Q: What about the “IP assay endog. Gαq + mock, NPR-4b” value ([3]; 10 µM peptide) of the same substance?
A: Its value is 0.99 x-fold of basal.

Q: And the “IP assay endog. Gαq + GαΔ6qi4myr, NPR-1” value ([1]; 0.1 nM peptide (Table S5), mean of >=3 independent experiments)?
A: Its value is 0.88 x-fold of basal.

Q: And the “IP accumulation with GαΔ6qi4myr, NPR-1” value [1, 7]?
A: Its value is 0.88 x-fold of basal.

Q: And the “IP accumulation with GαΔ6qi4myr, NPR-1” value [1, 8]?
A: Its value is 0.93 x-fold of basal.

Q: What about the “IP assay endog. Gαq + mock, NPR-3” value [4, 9] of the same substance?
A: The value was 0.92 x-fold of basal.

Q: What about the “IP assay endog. Gαq + mock, NPR-3” value ([4]; 10 µM peptide) of the same substance?
A: The value was 1.07 x-fold of basal.

Q: And the “IP assay endog. Gαq + mock, NPR-1” value [5, 9]?
A: The value was 0.89 x-fold of basal.

Q: What about the “IP assay endog. Gαq + mock, NPR-1” value ([5]; 10 µM peptide) of the same substance?
A: The value was 0.94 x-fold of basal.

Q: And the “IP assay endog. Gαq + mock, NPR-6” value [6, 9]?
A: Its value is 0.92 x-fold of basal.

Q: What about the “IP assay endog. Gαq + mock, NPR-6” value ([6]; 10 µM peptide) of the same substance?
A: The value was 0.95 x-fold of basal.

Q: With “ASPSFIRF-NH2 [FLP-4-2, C. elegans FMRFamide-like peptide, C-terminally amidated, synthesized by SPPS]” as the substance, how does the “IP accumulation with GαΔ6qi4myr, NPR-1” value [1, 7] read?
A: The value was 0.83 x-fold of basal.

Q: And the “IP accumulation with GαΔ6qi4myr, NPR-1” value [1, 8]?
A: The value was 0.89 x-fold of basal.

Q: How did the “IP accumulation with GαΔ6qi4myr, NPR-1” value [1, 7] turn out when “NPENDTPFGTMRF-NH2 [FLP-3-4, C. elegans FMRFamide-like peptide, C-terminally amidated, synthesized by SPPS]” was run?
A: Its value is 0.98 x-fold of basal.

Q: And the “IP accumulation with GαΔ6qi4myr, NPR-1” value [1, 8]?
A: Its value is 0.94 x-fold of basal.
